The numbers were not newly measured in patent US20100137292A1, “Pharmaceutical formulations of meloxicam” (SANOVEL ILAC SANAYI VE TICARET A.S., priority 2008, published 2010), which cites them from elsewhere.

Take `Cc1cnc(NC(=O)C2=C(O)c3ccccc3S(=O)(=O)N2C)s1` [Meloxicam, 4-hydroxy-2-methyl-N-(5-methyl-2-thiazolyl)-2H-1,2-benzothiazine-3-carboxamide-1,1-dioxide]: the Solubility in alcohol result (alcohol) is on record as “very slightly soluble”. Under “water”, the Solubility in water entry is on record as “practically insoluble”.
